Counter-ions that a name gives are not always drawn.
System: THP-1 cells
Assay: Induction of differentiation of THP-1 leukemia cells (CD11b membrane expression, flow cytometry)
Type: cell-based
Details: Homo sapiens; percentage of CD11b positive THP-1 cells, 96 h treatment
Experimental: By analyzing the induction of CD11b membrane expression on THP-1 cells we are assessing the ability of LSD1 inhibitors to induce terminal monocytic differentiation of a MLL-AF9 AML cell line. […] They carry t(9;11)(p21;q23) leading to MLL-MLLT3 (MLL-AF9) fusion gene. This cell line can undergo monocytic differentiation upon treatment with the appropriate stimulus. […] In this assay, 150, 000 THP-1 cells were seeded in 1 ml of complete culture medium in 6-well tissue culture plates. […] Cells were kept in the presence of test compound for 96 h at a 5% CO2 atmosphere at 37° C. After this treatment period, cells were harvested, washed twice with PBS buffer and placed in a V-bottom 96-well plate. Each treated sample was split in two. […] Percentage of CD11b positive cells, as an indicator of monocytic differentiation, was determined compared to isotype control antibody stained cells. EC50 values were calculated by non-linear regression analysis.

Compound: N[C@H]1CC[C@@H](N[C@@H]2C[C@H]2c2ccccc2)CC1 [Example 4, (cis)-N1-((1R,2S)-2-phenylcyclopropyl)cyclohexane-1,4-diamine hydrochloride]
- EC50: 5.3 nM

Compound: N[C@H]1CC[C@H](N[C@@H]2C[C@H]2c2ccccc2)CC1 [Example 5, (trans)-N1-((1R,2S)-2-phenylcyclopropyl)cyclohexane-1,4-diamine hydrochloride]
- EC50: 0.8 nM

Source: patent US10214477B2, “(Hetero)aryl cyclopropylamine compounds as LSD1 inhibitors” (Oryzon Genomics S.A., priority 2011, dated 2019)
